Experimental data published in patent US20100291543A1, “HOMOGENEOUS IN VITRO FEC ASSAYS AND COMPONENTS” (priority 2007, published 2010).
Values joined by “and” are separate entries in the source; they are usually repeats but may differ in a detail not shown here. Equal entries are not always repeated. Where two headings read alike, the source gives them in different places.

Experiments:
[1] = target: α and ω fragments of TEM-1 beta-lactamase (Escherichia coli, UniProt P62593, A182V/V82I); type: biochemical, E. coli
Protocol: Nitrocefin (Merck, Australia) is a colorimetric substrate of TEM-1 beta-lactamase that changes colour from yellow to red (OD492) following hydrolysis of the β-lactam ring. […] Assays were performed using a 96-well flat bottom cell-culture plate (TPP, Australia). Nitrocefin stock solutions of 200 or 600 μM were prepared in 50 mM NaH2PO4; 150 mM NaCl; 5% DMSO (Sigma, Australia) pH 7. For each 200 μl reaction, 100 μl of the nitrocefin stock was added to 100 μl of enzyme fragments (with or without Ni^2+) in 50 mM NaH2PO4 150 mM NaCl pH 7. Depending on the final signal required, the concentration of enzyme fragments used per well ranged from 40 nM to 200 nM and the final concentration of the Ni^2+ analyte from 100 μM or 200 μM. Assay components were mixed well by pipetting, incubated for 5 minutes at room temperature. Kinetics of the nitrocefin hydrolysis were read at 492 nm using a SpectraMax190 (Molecular Devices, USA).
In an attempt to improve the signal to noise ratio of forced α and ω fragments complementation, the effect of different buffer additives such as solvents, BSA, detergents, protein denaturants and salts were investigated. […] Assays were performed as described herein.
As a low concentration of solvent could partially denature the enzyme fragments, it was investigated whether a small amount of ethanol, isopropanol, methanol, DMSO and acetonitrile would reduce natural fragment complementation and increase the signal to noise ratio. The final concentrations of each solvent tested were 15%, 7.5%, 3.75%, 1.875%, […] and 0%. Kinetics of the complementation assays was read at 492 nm for 30 minutes. The signal/noise ratio was then calculated according to the maximum rate (mOD/min) from SoftmaxPro. […]
Detergent is widely used to reduce protein-protein interaction or ELISA background; using small amount might help preventing the natural fragment complementation by keeping two fragments apart then increased the signal/noise ratio. […] Reading data collecting time was 30 minutes. The signal/noise ratio was then calculated according to the maximum rate (mOD/min) from SoftmaxPro.
To test the effect of protein denaturants on enzyme fragment complementation, nitrocefin activity assays were performed using a matrix of fragment, substrate and NiSO4 concentrations in the presence of urea or guanidine hydrochloride. In preliminary assays, the complementation of 40 nM fragments was tested in concentrations of urea ranging from 2 M to 62.5 mM and in concentrations of GuHCl that ranged from 1M to 31.25 mM. The assay was prepared as follows: 40 nM of each fragment was added to a two-fold dilution series of urea [from 2 M urea 50 mM NaH2PO4 150 mM NaCl pH7 to 62.5 mM urea 50 mM NaH2PO4 150 mM NaCl pH7] or guanidine hydrochloride [from 1 M GuHCl 50 mM NaH2PO4 150 mM NaCl pH7 to 31.25 mM GuHCl 50 mM NaH2PO4 150 mM NaCl pH7] in duplicate. To the first set of wells, NiSO4 was added to a final concentration of 100 μM, whereas the second set contained no NiSO4. The plate was incubated for 5 minutes and the kinetics read at 492 nm using a SpectroMax reader.

human IgG (human) = test: surface plasmon resonance, same conditions as BLω-ProG
[2] = FPLC gel filtration (aggregation) of purified fragments; type: physicochemical; details: Purification Strategy: Denaturing CRF Ni-NTA
Text: In some cases, following affinity purification of the enzyme fragments, pooled eluates were subjected to size exclusion chromatography using a Superdex200GL column (Amersham cat. 17-5175-01) under the control of a DuoFlow chromatography system (BioRad cat. 760-0037). Gel filtration was used for either polishing of purified enzyme fragments (removal of contaminating proteins) or to determine the proportion of monomeric versus aggregated enzyme fragments after on-column refolding. The protocol was as follows: equilibration with 2 CV of 50 mM NaH2PO4 150 mM NaCl, pH7 at 0.6 ml/min; injection of 250-500 μl of sample at 0.6 ml/min; and isocratic flow of 1 CV of 50 mM NaH2PO4 150 mM NaCl, pH 7 at 0.6 ml/min. See FIG. 7 for exemplary results.

human IgG = test: Surface plasmon resonance binding kinetics for human IgG; details: SPR
Text: To confirm that the Protein G moiety of BLω-ProG was functional and suitable for testing in our HA format we assessed its binding kinetics for human IgG using surface plasmon resonance. […] A commercially available recombinant protein G, truncated to eliminate binding to human serum albumin, was included as a positive control.

[3] = tested on: rabbit hyper-immune serum (anti-HSV-1 peptide); type: biochemical; details: with BLα-HSV1 (5 nM), hyper-immune serum 1:100
[4] = type: physicochemical
Protocol: The pellet from a 250 ml overnight induction was lysed in 25 ml of [6 M GuHCl-100 mM NaH2PO4 10 mM Tris pH 8] followed by a 1-hour incubation at 4° C. with shaking at 100 rpm. To enhance lysis, the suspension was sonicated in an ice bath for 5 cycles of 30 seconds on/30 seconds off using a Branson 250 sonifier. After sonication, the lysate was centrifuged at 12,000×g for 30 min (4° C.) and then passed through a 0.2 μm filter to remove cellular debris.
Recombinant His-tagged proteins were purified using a 1 ml HisTrap HP column (Amersham cat. 17-5247-01) under the control of a DuoFlow chromatography system (BioRad cat. 760-0037). The HisTrap column was equilibrated with 10 column volumes (CV) of 8 M urea 100 mM NaH2PO4 10 mM Tris pH 7.5 at a flow rate of 1 ml/min. Cleared E. coli lysates were then loaded onto the column using a Model EP-1 Econopump (BioRad cat. 731-8142) at 0.5 ml/min. The column was washed with 10 CV of 8 M Urea 100 mM NaH2PO4 10 mM Tris pH 6.3. Bound protein was refolded over a 60 CV gradient from 8 M Urea 100 mM NaH2PO4 10 mM Tris 200 mM L-arginine 100 μM GSSG pH 7.5 to 100 mM NaH2PO4 10 mM Tris 200 mM L-arginine 100 μM GSSG pH 7.5 at 1 ml/min. Histidine-tagged proteins were eluted with 10 CV of 250 mM imidazole 50 mM NaH2PO4 150 mM NaCl pH 8, and analysed by PAGE, western blotting, gel filtration and mass spectroscopy.

[5] = Purification Strategy: Denaturing CRF Ni-NTA

Q: Which “concentration at which optimal signal to noise ratio was achieved” value (“concentration … to noise ratio was achieved” for short) [1] does the source give for `C[S+](C)[O-]` [DMSO] here?
A: Its value is 15%.

Q: Which “concentration … to noise ratio was achieved” value ([1]; solvents and detergents) does the source give for `CC#N` [acetonitrile] here?
A: Its value is 3.75%.

Q: What does the source list for `CCO` [ethanol]?
A: concentration at which optimal signal to noise ratio was achieved [1]: 3.75%; signal/noise ratio [1]: 7.1 and 8.4 and 8.5 and 5.4

Q: For `c1c[nH]cn1` [imidazole], which “concentration … to noise ratio was achieved” value ([1]; imidazole) is on record?
A: Its value is 12.5 mM.

Q: What about the signal/noise ratio ([1]; imidazole final concentration 6.25 mM) of the same molecule?
A: The signal/noise ratio was 5.2.

Q: And the signal/noise ratio ([1]; imidazole final concentration 12.5 mM)?
A: The signal/noise ratio was 5.3.

Q: And the signal/noise ratio ([1]; imidazole final concentration 25 mM)?
A: Its signal/noise ratio is 3.7.

Q: What about the signal/noise ratio ([1]; imidazole final concentration 50 mM) of the same molecule?
A: The signal/noise ratio was 2.1.

Q: What about the signal/noise ratio ([1]; imidazole final concentration 100 mM) of the same molecule?
A: The signal/noise ratio was 0.8.

Q: With `CC(C)O` [isoproponal, isopropanol] as the molecule, how does the “concentration … to noise ratio was achieved” value ([1]; solvents and detergents) read?
A: Its value is 3.75%.

Q: With `CO` [methanol] as the molecule, how does the “concentration … to noise ratio was achieved” value ([1]; solvents and detergents) read?
A: Its value is 7.5%.

Q: Which “concentration … to noise ratio was achieved” value ([1]; denaturant) does the source give for `NC(N)=O` [urea] here?
A: Its value is 0.5 M.

Q: For Triton-X100, which “concentration … to noise ratio was achieved” value [1] is on record?
A: The value was 0.3%.

Q: Which “concentration … to noise ratio was achieved” value ([1]; solvents and detergents) does the source give for Tween-20 here?
A: Its value is 0.15%.

Q: For “commercially available recombinant protein G, truncated to eliminate binding to human serum albumin”, which Kd (human IgG (human)) is on record?
A: Its Kd is 483 nM.

B1: PB11.2: alpha fragment construct containing substitutions V74T and M182T, SEQ ID NO: 6 (protein)
chain: MHPETLVKVKDAEDQLGARVGYIELDLNSGKILESFRPEERFPMMSTFKTLLCGAVLSRIDAGQEQLGRRIHYSQNDLVEYSPVTEKHLTDGMTVRELCSAAITMSDNTAANLLLTTIGGPKELTAFLHNMGDHVTRLDRWEPELNEAIPNDERDTTTPVAMATTLRKLLTGGGGGSHHHHHH
modifications: PB11.2 construct
Q: Which “FPLC (aggregation)” value [2] does the source give for B1 here?
A: The value was “<+”.

B2: BLω-ProG: omega fragment fused via (G4S)3 linker to C2 domain of protein G, SEQ ID NO: 83 (protein)
chain: MHHHHHHGGGGSGSTYKLVINGKTLKGETTTEAVDAATAEKVFKQYANDNGVDGEWTYDDATKTFTVTETSGGGGSGGGGSGGGGSASELLTLASRQQLIDWMEADKVAGPLLRSALPAGWFIADKSGAGERGSRGIIAALGPDGKPSRIVVIYTTGSQATMDERDRQIAEIGASLIKHW
modifications: Protein G subunit omega reporter fragment displaying sequence of BLaProGconstruct
Q: For B2, which rate of association (human IgG) is on record?
A: Its rate of association is “slower rate of association than the C2 domain”.

Q: What about the rate of dissociation (human IgG) of the same molecule?
A: The rate of dissociation was “slower rate of dissociation”.

Q: What about the Kd (human IgG; read-out: dissociation constant (KD)) of the same molecule?
A: Its Kd is 81 nM.

Q: What about the level of activity [3] of the same molecule?
A: Its level of activity is “highest level of activity”.

B3: PB15: rearranged full-length (FL) construct of Beta-lactamase, SEQ ID NO: 21 (protein)
chain: MHMHHHHHHEERFPMMSTFKVLLCGAVLSRIDAGQEQLGRRIHYSQNDLVEYSPVTEKHLTDGMTVRELCSAAITMSDNTAANLLLTTIGGPKELTAFLHNMGDHVTRLDRWEPELNEAIPNDERDTTMPVAMATTLRKLLTGELLTLASRQQLIDWMEADKVAGPLLRSALPAGWFIADKSGAGERGSRGIIAALGPDGKPSRIVVIYTTGSQATMDERNRQIAEIGASLIKHWGSGSGHPETLVKVKDAEDQLGARVGYIELDLNSGKILESFRH
modifications: PB15
Q: Which “Purification (solubility)” value [4, 5] does the source give for B3 here?
A: Its value is “>+++”.

Q: What about the “Purification (solubility)” value ([4]; Purification Strategy: Native Ni-NTA) of the same molecule?
A: Its value is “<+”.

B4: PB15.3: rearranged construct of Beta-lactamase with substitutions M182T, I208T and F230Y, SEQ ID NO: 22 (protein)
chain: MHMHHHHHHEERFPMMSTFKVLLCGAVLSRIDAGQEQLGRRIHYSQNDLVEYSPVTEKHLTDGMTVRELCSAAITMSDNTAANLLLTTIGGPKELTAFLHNMGDHVTRLDRWEPELNEAIPNDERDTTTPVAMATTLRKLLTGELLTLASRQQLTDWMEADKVAGPLLRSALPAGWYIADKSGAGERGSRGIIAALGPDGKPSRIVVIYTTGSQATMDERNRQIAEIGASLIKHWGSGSGHPETLVKVKDAEDQLGARVGYIELDLNSGKILESFRH
modifications: PB15.3 (M182T, I208T, F230Y)
Q: For B4, which “Purification (solubility)” value [4, 5] is on record?
A: The value was “>+++”.
